Data set [1] concerns HIV-1. As to the kind of experiment: HIV-1 plaque assay, inhibitor added 30 minutes before infection. The format is cell-based, human immunodeficiency virus type 1 (HIV-1). The note with it: for Inhibition (%): HIV-1 plaque formation, Table 5. The text has this: Dextran sulfate was used as a positive control. […] Plaques were counted at five days after infection.
(§1) By way of further background, in our assay HIV-1 syncytial plaques are seen as large, multicellular foci (10 to 25 nuclei/syncytium) that appear either brown and granular or clear. Since the number of HIV-1 syncytial plaques correlates with reverse transcriptase (RT) and p24 core antigen activity in the HIV-1 infected cell overlay fluids, the syncytial plaque assay can be used to quantify the amount of infectious virus. Reverse transcriptase activity was assayed according to a described procedure (B. J. Poeisz et al., Proc. Natl. Acad. Sci. (U.S.A.) […], 7415 (1980)). The activity of p24 core antigen induced by HIV-1 infection of CEM-SS cells was measured spectrophotometrically using the commercial Abbott EIA.
Compound E inhibited HIV-1 plaque count 43%, 83%, and 91% at concentrations of 0.2, 0.4, and 2.0 μM, respectively, compared to untreated controls. […] In other experiments addition of 0.2, 0.4 and 2.0 μM Compound E starting sixty minutes after HIV-1 infection inhibited HIV-1 plaque formation 28%, 59% and 97% respectively, compared to untreated controls.

The subject of data set [2] is HIV-1 binding to target T-cells. As to conditions: in words; cited from earlier work.
Data set [3] deals with HIV-1. As to the kind of experiment: Infectious HIV-1 multiplication (plaque forming units). The format is cell-based, human immunodeficiency virus type 1 (HIV-1). The note with it: in words. As to the method: (§2) In brief, CEM-SS cells were infected with HIV-1. At various times after infection (3, 6, 8, 10, 13 days) the overlay fluids were replaced with fresh medium. Overlay fluids replaced on days 8, 10 and 13 were saved at -80° C. to measure HIV-1 plaque forming units according to our described protocol above and RT activity (described by Poiesz et al., Proc. Natl. Acad. Sci. U.S.A. 77, 7415 (1980). Results are given in Table 8 below.

A further data set relates to extracellular HSV-2. As to the kind of experiment: Direct inactivation of extracellular HSV-2 infectivity. The note with it: 2 μM, in words. The format is cell-based, herpes simplex virus type 2 (HSV-2).
The test system of a further data set is reverse transcriptase. In words: Reverse transcriptase activity in HIV-1 infected CEM-SS cells. The format is cell-based, human immunodeficiency virus type 1 (HIV-1). The note with it: in words. As to the method: as §1, §2
In data set [4] the test system is herpes simplex virus type 2 (HSV-2). In words: HSV-2 plaque formation in Vero cell monolayers. As to conditions: 2 μM, in words. The format is cell-based.
The test system of another data set is extracellular HIV-1. In words: Direct inactivation of extracellular HIV-1 infectivity. The format is cell-based, human immunodeficiency virus type 1 (HIV-1). As to the method: Since ether lipid (EL) analogs are membrane interactive, see, e.g. , A. Noseda et al., Biochim. Biophys. Acta 945, 92 (1988), we determined whether Compound E could directly inactivate extracellular HIV-1 infectivity. About 350 plaque forming units of HIV-1 were mixed with antiviral concentrations (2.0 μM) of E or with control medium alone in a total volume of 100 μl. After three hours of incubation at 37° C., the virus compound and virus medium mixtures were diluted 20-fold to reduce the concentration of Compound E below a significant antiviral concentration. Aliquots (100 μl) of the diluted HIV-1 were added to CEM-SS cell monolayers to measure residual virus infectivity by plaque count. A mean of 22 plaques (N=2) were counted for Compound E-treated HIV-1 and a mean of 27 plaques (N=2) for medium-treated HIV-1.

In data set [5] the test system is KB cells. In words: Synergism with vincristine on KB cell number. The format is cell-based, human. As to the method: (§3) All cells were grown in Eagle's minimum essential medium supplemented with 10% fetal bovine serum with the exception of HL-60 and K562-4 cells which were grown in RPMI 1640 medium supplemented with 10% fetal bovine serum. The KB and MH1 C1 cells, from a human nasopharyngeal carcinoma and rat hepatoma, respectively, were from American Type Culture Collection. The ChaGo cells, a human lung carcinoma, was generously provided by Dr. A. H. Tashjian. The human promyeloblastic leukemia cells, K562-4 were kindly supplied by Dr. Bismarck Lozzio. HL-60 cells, a human promyelocytic leukemia, and P388 cells, a mouse leukemia, were obtained from Dr. Y.-C. Cheng. The 77 cells were put into culture by us by excising the 7777, Morris hepatoma from a rat graciously supplied by the late Dr. H. P. Morris.
(§4) Cells were transferred or removed from monolayers for counting after a one or two minute incubation with 0.02% sodium ethylenediamine tetraacetate in phosphate-buffered saline to dislodge the cells. Flasks were seeded at a density of 1×10^3 cells per cm^2 or 2×10^4 per milliliter for suspension cultures. The HL-60 and K562-4 suspension cultures were used about 24 hours after seeding. The compounds to be tested were diluted to various concentrations and added to the monolayer cultures. All of the test compounds were dissolved in 10% dimethyl sulfoxide (DMSO) at concentrations that would give a final DMSO concentration of 0.1%. Control flasks contained 0.1% DMSO. Control cell replication was followed until approximately three doublings had occurred, and then all of the treated cells were counted.
For example, 1 μM VIII reduced cell number to 45% of control and 0.004 μg per milliliter vincristine caused a reduction to 27% of control. Thus, the two agents together should have reduced cell number to 12% of control if they acted additively.

Data set [6] has as its system KB cells. In words: Cytostatic activity on KB cells. The format is cell-based. The note with it: Homo sapiens; KB cells, after controls doubled three times; read-out: IC50 KB. As to the method: as §3, §4
(§5) The KB cells represented cells with low alkyl cleavage activity (less than the detectable level of 0.1-0.2 units per milligram protein by our assay procedure) and the 77 cells represented cells similar to normal cells with relatively high alkyl cleavage activity (1.6 units per milligram of protein). Our value for the cleavage activity of cultured 77 cells agrees well with the value of 1.4 units per milligram of protein reported by Soodsma et al, Cancer Res. 30, 309 (1970), for freshly excised 7777 Morris hepatoma tissue. In further confirmation of our assay procedure, we obtained a value of 12.6±4.1 units per milligram of protein in excised rat liver compared to 7.3 units per milligram of protein in rat liver measured by Soodsma et al.

A further data set has as its system K562-4 cells. As to the kind of experiment: Cytostatic activity on K562-4 cells. The format is cell-based. As to conditions: Homo sapiens; K562-4 (printed X562-4). As to the method: as §3, §4
Data set [7] concerns P388 mouse leukemia cells. As to the kind of experiment: In vivo anti-tumor activity, P388 mouse leukemia. Also noted: species or system mouse (BDF1 female mice). As to conditions: for increased survival: days 1, 5, and 9. The source says:
P388 mouse leukemia cells were transplanted by intraperitoneal injection of 1×10^6 cells into BDF1 female mice on day 0. Treatments were begun on day 1. Control mice received the vehicle for the test compounds. […]

In a further data set the test system is HL-60 cells. As to the kind of experiment: Cytostatic activity on HL-60 cells. The format is cell-based. As to conditions: Homo sapiens. As to the method: as §3
(§6) Cells were transferred or removed from monolayers for counting after a one or two minute incubation with 0.02% sodium ethylenediamine tetraacetate in phosphate-buffered saline to dislodge the cells. Flasks were seeded at a density of 1×10^3 cells per cm^2 or 2×10^4 per milliliter for suspension cultures. The HL-60 and K562-4 suspension cultures were used about 24 hours after seeding. […] Control cell replication was followed until approximately three doublings had occurred, and then all of the treated cells were counted.

The test system of the next data set is 77 cells. As to the kind of experiment: Cytostatic activity on 77 cells. The format is cell-based, rat. As to conditions: for IC50: 77 cells, after controls doubled three times; for 77/KB: ratio of IC50 values ± standard error of the quotient. As to the method: as §3, §4, §5
The subject of a further data set is ChaGo cells. In words: Cytostatic activity on ChaGo cells. The format is cell-based, human. As to the method:
as §3, §4

Another data set relates to P388 cells. As to the kind of experiment: Cytostatic activity on P388 cells. The note with it: Mus musculus. The format is cell-based. As to the method: as §3, §6
In a further data set the test system is MH1 C1 cells. As to the kind of experiment: Cytostatic activity on MH1 C1 cells. The format is cell-based, rat. As to the method: as §3, §4

Read-outs that look alike come from different tables or passages of the source.

Turning to Dextran Sulfate [reference compound], the “Inhibition (%)” value in the data set on HIV-1 [1] (1 μM) is reported as 91%; in the data set on HIV-1 [1] (1 μM, listed as dextran sulfate) it was 92%; with HIV-1 [1] (2 μM), 100%; with HIV-1 [1] (10 μM), 100%. Also, in [2], the “inhibition of HIV-1 binding to target T-cells” value is “a known inhibitor of HIV-1 binding to target T-cells”.
For the compound `CCCCCCCCCCCCCCCCSCC(C[N+](C)(C)CCO)OC.[I-]` (racemic) [Compound 12, (±)-3-hexadecylthio-2-methoxy-N,N-dimethyl-N-β-hydroxyethyl-1-propyl ammonium iodide], the infectious virus production result with HIV-1 [3] (13 days) is “infectious virus production is still inhibited”; in the data set with HIV-1 [3] (between 8 and 10 days), “markedly inhibit infectious virus production”. In the data set with extracellular HSV-2, the “inactivation of extracellular HSV-2 infectivity” value was “nor directly inactivates extracellular HSV-2 infectivity”. Besides, the “selectivity against HIV-1 plaque formation” value with HIV-1 [1] (vs HSV-2, in words) is recorded as “selective inhibitory activity against HIV-1 plaque formation”. Besides, the reverse transcriptase activity result is “reverse transcriptase activity increases” in the data set with reverse transcriptase (13 days); “markedly inhibit infectious virus production and reverse transcriptase activity in a dose-dependent manner” in the data set with reverse transcriptase (between 8 and 10 days). Also, the “inhibition of HSV-2 plaque formation” value in [4] is listed as “neither inhibits herpes simplex virus type 2 (HSV-2) plaque formation in Vero cell monolayers”. Besides, in the data set on extracellular HIV-1 (2.0 μM, in words), the “inactivation of extracellular HIV-1 infectivity” value is listed as “does not inactivate extracellular HIV-1 infectivity”. Also, the mean residual plaques with extracellular HIV-1 (HIV-1 treated 2.0 μM, 3 hours, 37° C., diluted 20-fold, N=2 (medium: 27 plaques)) was 22 plaques.
For the compound `CC[C@]1(O)C[C@H]2CN(CCc3c([nH]c4ccccc34)[C@@](C(=O)OC)(c3cc4c(cc3OC)N(C=O)[C@H]3[C@@](O)(C(=O)OC)[C@H](OC(C)=O)[C@]5(CC)C=CCN6CC[C@]43[C@@H]65)C2)C1` [vincristine, reference compound], in the data set with KB cells [5] (0.004 μg per milliliter vincristine), the “cell number, % of control” value turned out to be 27%.
For the compound `CCCCCCCCCCCCCCCCOCC[N+](C)(C)CCCO.[I-]` [VI, 2-hexadecyloxy-N,N-dimethyl-N-gamma-hydroxypropyl-1-ethyl ammonium iodide], the 50% inhibitory concentration (IC50) – broadly, the midpoint of a concentration-inhibition curve – stood at 0.23 ± 0.07 µM in the data set with KB cells [6], 2.2 ± 0.41 µM in the data set on K562-4 cells, 0.45 ± 0.011 µM in the data set on HL-60 cells and 2.05 ± 0.91 µM with 77 cells. In addition, the increased survival is given as 26% in [7] (50 mg/kg) and 48% in data set [7] (75 mg/kg). In data set [7] (75 mg/kg on days 1 and 2), this compound registered a reduced survival of 48%. In addition, the “in vivo activity against P388” value in data set [7] (in words) is “appeared to have in vivo activity against P388”. The survival time entry in data set [7] (one 50 mg/kg dose on day 1) was “did not affect survival time”. The lethality entry in [7] (single 100 mg/kg dose on day 1) is given as “killed all the mice by day 2”. Moreover, in the data set on 77 cells, the 77/KB is 8.9 ± 4.79.
For the compound `CCCCCCCCCCCCCCCCCCOCC(O)C[N+](C)(C)CCO.[I-]` (racemic) [X, (±)-3-octadecyloxy-2-hydroxy-N,N-dimethyl-N-β-hydroxyethyl-1-propyl ammonium iodide], the IC50 was 0.35 ± 0.05 µM with KB cells [6]; 2.5 µM in the data set on K562-4 cells; 2.8 µM with ChaGo cells; 1.7 µM in the data set on ChaGo cells (Homo sapiens); 1.33 ± 0.4 µM in the data set with 77 cells. In addition, in the data set with 77 cells, the 77/KB is 2.9 ± 0.96.
`CCCCCCCCCCCCCCCCCCOCC[N+](C)(C)CCO.[I-]` [VIII, 2-octadecyloxy-N,N-dimethyl-N-β-hydroxyethyl-1-ethyl ammonium iodide]: the concentration for half-maximal inhibition (IC50) in the data set on KB cells [6] was found to be 0.3 ± 0.14 µM; with K562-4 cells it was 1.9 µM; in the data set with ChaGo cells (Homo sapiens), 1 µM; with P388 cells, 0.42 µM; in the data set on MH1 C1 cells (MH1 C1), 7.7 µM; in the data set on MH1 C1 cells (Rattus norvegicus, MH1C1, MH1 C1) it was 6.4 µM. For the same compound, in the data set on 77 cells, the midpoint of inhibition, the IC50, lay at 1.8 ± 0.81 µM. For the same compound, the activity at 1 µM in the data set on KB cells [5] (Homo sapiens, 1 μM VIII, read-out: cell number, % of control) is 45%. Besides, the synergism with vincristine result with KB cells [5] (in words) is “acted synergistically with vincristine against KB cells”. In addition, the “sensitivity of MH1 C1 cells relative to 77 cells” value in the data set on MH1 C1 cells (MH1 C1 vs 77 cells) is listed as “two to three times less sensitive to growth inhibition than 77 cells”. The 77/KB with 77 cells was found to be 5.8 ± 3.8.

Values taken from patent US5614548A, “Quaternary amine containing ether or ester lipid derivatives and therapeutic compositions” (priority 1994, dated 1997).
